{"source": "patent US20180263985A1", "about": "“MODULATORS OF TOLL-LIKE RECEPTORS FOR THE TREATMENT OF HIV” (Gilead Sciences, Inc., priority 2015, published 2018)", "key": {"[1]": {"tested_on": "CD8+ T Cells", "assay": "Immune cell activation in PBMC cultures, flow cytometry: CD8+ T cells", "format": "cell-based, human", "conditions": "2 days; for CD8+ T Cells CD25 Fold / CD8+ T Cells CD28 Fold / CD8+ T Cells CD38 Fold / CD8+ T Cells CD69 Fold / CD8+ T Cells CD25 % / CD8+ T Cells CD28 % / CD8+ T Cells CD69 %: N = 6", "description": "(§1) TLR8 is expressed on multiple immune cell subsets. To determine how treatment with a TLR8 modulating compound affects activation of distinct cell populations, PBMCs were purified from HIV-1 infected subjects on cART, as described in Example 121 (anonymized participant IDs 184, 185, 188, 189, 190, and 191). […] After incubation, PBMCs were harvested and stained with antibodies conjugated to specific fluorophores (BD Biosciences) to delineate immune cell subsets: CD4 T cells (CD3+CD4+CD8−), CD8 T cells (CD3+CD8+CD4−), NK cells (CD3−CD56+CD16+), monocytes (CD3−CD14+), B cells (CD3−CD19+), and peripheral dendritic cells (DCs), defined as positive for HLA-DR and negative for a panel of markers: CD3, CD14, CD16, CD19, CD20, CD56 (Lin-1 lineage panel, BD Biosciences).\n(§2) Additional markers of activation, maturation, and effector function were included for cell subsets, as follows: CD4 and CD8 T cells (CD25, CD38, CD69, IFN-γ, granzyme B, perforin, TNF-α), NK cells (CD25, CD69, IFN-γ), monocytes (CD11c, CD16, CD80, CD86, CD163, TNF-α), B cells (CD40, CD69, CD80, CD86), and DC (CD11c, CD69, CD80, CD86, CD123, and CD163). Cells were stained for surface markers (CD3, CD4, CD8, CD11c, CD14, CD16, CD25, CD69, CD80, CD86, CD163), washed, treated with fixation and permeabilization buffer (eBioscience), and stained for intracellular markers (IFN-γ, granzyme B, perforin, TNF-α). Cells were evaluated by flow cytometry on a LSR Fortessa (BD Biosciences), and data was analyzed with FlowJo software (TreeStar).\n(§3) Data are expressed as geometric mean percentage (%) and as geometric mean fold-activation (Fold) for each marker and for each PBMC subset obtained from 4 or 6 subjects, as indicated. Fold activation is calculated as a ratio of the % positive for each marker for each PBMC subset at the indicated concentration of the compound of Example 15 relative to % positive for DMSO treated samples. Fold activations that are 1.5 are in bold."}, "[2]": {"tested_on": "CD4+ T Cells", "assay": "Immune cell activation in PBMC cultures, flow cytometry: CD4+ T cells", "format": "cell-based, human", "conditions": "2 days, N = 6", "description": "as §1, §2, §3"}}, "data": [{"molecule": "CCCC[C@H](CO)Nc1nc(N)nc2cccnc12", "note": "[Example 15]", "values": [{"measurement": "CD8+ T Cells CD25 Fold", "setting": "[1]; 10 nM vs DMSO", "result": 0.6, "unit": "fold"}, {"measurement": "CD8+ T Cells CD28 Fold", "setting": "[1]; 10 nM vs DMSO", "result": 0.9, "unit": "fold"}, {"measurement": "CD8+ T Cells CD38 Fold", "setting": "[1]; 10 nM vs DMSO", "result": 0.9, "unit": "fold"}, {"measurement": "CD8+ T Cells CD69 Fold", "setting": "[1]; 10 nM vs DMSO", "result": 0.8, "unit": "fold"}, {"measurement": "CD8+ T Cells CD25 %", "setting": "[1]; 10 nM", "result": 0.2, "unit": "%"}, {"measurement": "CD8+ T Cells CD28 %", "setting": "[1]; 10 nM", "result": 0.1, "unit": "%"}, {"measurement": "CD8+ T Cells CD69 %", "setting": "[1]; 10 nM", "result": 3.7, "unit": "%"}, {"measurement": "CD8+ T Cells CD25 Fold", "setting": "[1]; 100 nM vs DMSO", "result": 1.0, "unit": "fold"}, {"measurement": "CD8+ T Cells CD28 Fold", "setting": "[1]; 100 nM vs DMSO", "result": 1.1, "unit": "fold"}, {"measurement": "CD8+ T Cells CD38 Fold", "setting": "[1]; 100 nM vs DMSO", "result": 1.0, "unit": "fold"}, {"measurement": "CD8+ T Cells CD69 Fold", "setting": "[1]; 100 nM vs DMSO", "result": 0.7, "unit": "fold"}, {"measurement": "CD8+ T Cells CD25 %", "setting": "[1]; 100 nM", "result": 0.3, "unit": "%"}, {"measurement": "CD8+ T Cells CD28 %", "setting": "[1]; 100 nM", "result": 0.1, "unit": "%"}, {"measurement": "CD8+ T Cells CD69 %", "setting": "[1]; 100 nM", "result": 3.4, "unit": "%"}, {"measurement": "CD8+ T Cells CD25 Fold", "setting": "[1]; 1000 nM vs DMSO", "result": 2.2, "unit": "fold"}, {"measurement": "CD8+ T Cells CD28 Fold", "setting": "[1]; 1000 nM vs DMSO", "result": 4.4, "unit": "fold"}, {"measurement": "CD8+ T Cells CD38 Fold", "setting": "[1]; 1000 nM vs DMSO", "result": 2.0, "unit": "fold"}, {"measurement": "CD8+ T Cells CD69 Fold", "setting": "[1]; 1000 nM vs DMSO", "result": 2.2, "unit": "fold"}, {"measurement": "CD8+ T Cells CD25 %", "setting": "[1]; 1000 nM", "result": 0.7, "unit": "%"}, {"measurement": "CD8+ T Cells CD28 %", "setting": "[1]; 1000 nM", "result": 0.4, "unit": "%"}, {"measurement": "CD8+ T Cells CD25 Fold", "setting": "[1]; 3000 nM vs DMSO", "result": 3.0, "unit": "fold"}, {"measurement": "CD8+ T Cells CD28 Fold", "setting": "[1]; 3000 nM vs DMSO", "result": 4.7, "unit": "fold"}, {"measurement": "CD8+ T Cells CD38 Fold", "setting": "[1]; 3000 nM vs DMSO", "result": 2.0, "unit": "fold"}, {"measurement": "CD8+ T Cells CD69 Fold", "setting": "[1]; 3000 nM vs DMSO", "result": 2.5, "unit": "fold"}, {"measurement": "CD8+ T Cells CD25 %", "setting": "[1]; 3000 nM", "result": 0.9, "unit": "%"}, {"measurement": "CD8+ T Cells CD28 %", "setting": "[1]; 3000 nM", "result": 0.5, "unit": "%"}, {"measurement": "Perforin in CD8+ T cells", "setting": "[1]; Example 15 treatment", "result": "did not increase"}, {"measurement": "CD4+ T Cells CD25 Fold", "setting": "[2]; 10 nM vs DMSO", "result": 0.6, "unit": "fold"}, {"measurement": "CD4+ T Cells CD69 Fold", "setting": "[2]; 10 nM vs DMSO", "result": 0.7, "unit": "fold"}, {"measurement": "CD4+ T Cells Perforin Fold", "setting": "[2]; 10 nM vs DMSO", "result": 1.5, "unit": "fold"}, {"measurement": "CD4+ T Cells CD25 %", "setting": "[2]; 10 nM", "result": 1.5, "unit": "%"}, {"measurement": "CD4+ T Cells CD69 %", "setting": "[2]; 10 nM", "result": 5.7, "unit": "%"}, {"measurement": "CD4+ T Cells CD25 Fold", "setting": "[2]; 100 nM vs DMSO", "result": 1.7, "unit": "fold"}, {"measurement": "CD4+ T Cells CD69 Fold", "setting": "[2]; 100 nM vs DMSO", "result": 1.0, "unit": "fold"}, {"measurement": "CD4+ T Cells Perforin Fold", "setting": "[2]; 100 nM vs DMSO", "result": 1.3, "unit": "fold"}, {"measurement": "CD4+ T Cells CD25 %", "setting": "[2]; 100 nM", "result": 3.9, "unit": "%"}, {"measurement": "CD4+ T Cells CD69 %", "setting": "[2]; 100 nM", "result": 7.7, "unit": "%"}, {"measurement": "CD4+ T Cells CD25 Fold", "setting": "[2]; 1000 nM vs DMSO", "result": 1.8, "unit": "fold"}, {"measurement": "CD4+ T Cells CD69 Fold", "setting": "[2]; 1000 nM vs DMSO", "result": 1.5, "unit": "fold"}, {"measurement": "CD4+ T Cells Perforin Fold", "setting": "[2]; 1000 nM vs DMSO", "result": 1.8, "unit": "fold"}, {"measurement": "CD4+ T Cells CD25 %", "setting": "[2]; 1000 nM", "result": 4.2, "unit": "%"}, {"measurement": "CD4+ T Cells CD25 Fold", "setting": "[2]; 3000 nM vs DMSO", "result": 1.3, "unit": "fold"}, {"measurement": "CD4+ T Cells CD69 Fold", "setting": "[2]; 3000 nM vs DMSO", "result": 1.7, "unit": "fold"}, {"measurement": "CD4+ T Cells Perforin Fold", "setting": "[2]; 3000 nM vs DMSO", "result": 2.1, "unit": "fold"}, {"measurement": "CD4+ T Cells CD25 %", "setting": "[2]; 3000 nM", "result": 3.0, "unit": "%"}, {"measurement": "CD4+ T Cells Perforin %", "setting": "[2]; 3000 nM", "result": 17.0, "unit": "%"}]}]}
